# Target: T1, CBX7ChD (Homo sapiens, UniProt O95931)
# T1 sequence (O95931 11-69 limits assumed): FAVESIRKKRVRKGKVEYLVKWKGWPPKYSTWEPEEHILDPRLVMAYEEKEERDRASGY
# Type: binding
row,Compound,IC50
1,Cc1cc(-c2ccc(/N=N/c3ccc4c(S(=O)(=O)O)cc(S(=O)(=O)O)c(N)c4c3O)c(C)c2)ccc1/N=N/c1ccc2c(S(=O)(=O)O)cc(S(=O)(=O)O)c(N)c2c1O [Evans blue],3.9 µM
2,O=C(O)c1cc(O)c2c(c1)[C@H]([C@H]1c3cc(C(=O)O)cc(O)c3C(=O)c3c(O[C@@H]4O[C@H](CO)[C@@H](O)[C@H](O)[C@H]4O)cccc31)c1cccc(O[C@@H]3O[C@H](CO)[C@@H](O)[C@H](O)[C@H]3O)c1C2=O [Sennoside A],33.3 µM
3,Cc1cc(-c2ccc(/N=N/c3c(S(=O)(=O)O)cc4cc(S(=O)(=O)O)cc(N)c4c3O)c(C)c2)ccc1/N=N/c1c(S(=O)(=O)O)cc2cc(S(=O)(=O)O)cc(N)c2c1O [Trypan blue],7.5 µM
4,O=C(O)C1=CC(=C(c2ccc(O)c(C(=O)O)c2)c2ccc(O)c(C(=O)O)c2)C=CC1=O [Aurin tricarboxylic acid],5.5 µM
